Assay results: PubChem BioAssay (NCI)
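How tested: cells in 96-well plates exposed to compound for 48 hours at five concentrations. GI50 is the concentration that inhibits growth by half. TGI denotes the concentration required for complete inhibition of growth.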

How the values were obtained:
Assay in all cases: growth of human tumour cells (NCI), 48 h
[1] = tested on: RPMI-8226 leukemia
[2] = tested on: SK-MEL-5 melanoma
[3] = tested on: SF-295 CNS
[4] = tested on: KM12 colon
[5] = tested on: SF-268 CNS
[6] = tested on: MDA-MB-231 breast
[7] = tested on: OVCAR-3 ovarian
[8] = tested on: TK-10 renal
[9] = tested on: T-47D breast
[10] = tested on: U251 CNS

SMILES	TGI [1] [µM]	TGI [2] [µM]	TGI [3] [µM]	TGI [4] [µM]	TGI [5] [µM]	TGI [6] [µM]	TGI [7] [µM]	TGI [8] [µM]	TGI [9] [µM]	TGI [10] [µM]	GI50 [1]	GI50 [2] [µM]	GI50 [3]	GI50 [4]	GI50 [5]	GI50 [6]	GI50 [7]	GI50 [8] [µM]	GI50 [10]	GI50 [9]
CC(=O)Nc1nc2c(=O)c3ccccc3sc2s1	> 100	> 100	> 100	> 100	> 100	> 100	> 100	> 100	> 100											
CCCCCCC1OC23OC1CCC2C(O)CCC3O (configuration not stated)	> 100	> 100	> 100	> 100	> 100	> 100	> 100	> 100		> 100										
COC(=O)C(C)NP(=O)(OCc1cccc(Cn2cnc3c(N)ncnc32)c1)Oc1ccccc1 (configuration not stated)	> 100	> 100	> 100	> 100	> 100	> 100	> 100	> 100		> 100	> 100 µM	54.1	> 100 µM	68.2 µM	58.4 µM	51.7 µM	43 µM	> 100	> 100 µM	
Nc1nccc(NCC2(CO)CC(CCc3ccccc3)C2)n1 (configuration not stated)	51	16.9	26.4	41.7		48.9	38.9	25.5	27.6	28.7										
CC(=O)n1c2ccc(Br)cc2c2nc3ccccc3nc21	> 100	> 100	> 100	> 100	> 100	> 100	> 100	> 100		> 100										
Cc1cc2nnn(C3CCCCO3)c2cc1C (configuration not stated)		> 100	> 100	> 100		> 100	> 100	> 100	> 100	> 100										
O=C(c1c(F)c(F)c(F)c(F)c1F)n1c(=S)n(C(=O)c2c(F)c(F)c(F)c(F)c2F)c2ccccc21	> 100	> 100	> 100	> 100	> 100	> 100		> 100	> 100	> 100										
COc1cc(Nc2nc3cc(C)ccc3nc2-c2ccccc2)cc(OC)c1OC		35.1	56	> 100	> 100		41.8	> 100		> 100										
COC(=O)c1c(C)cccc1C1CN=NC12Cc1cc(C)c(C)cc1C2=O (configuration not stated)		46.3	> 100	> 100	> 100	> 100	> 100	> 100	> 100	> 100										
COc1cc(S(=O)(=O)Nc2nc(-c3ccc(N=Cc4ccccc4O)cc3)cs2)ccc1Cl		71.5	> 100	> 100	> 100	> 100	> 100	> 100	> 100	> 100										
CC(C)(C)OC(=O)CC(NC(=O)OCc1ccccc1)NC(=O)OC(C)(C)C (configuration not stated)											32.8 µg/mL		46.2 µg/mL	40.3 µg/mL	87.1 µg/mL	52.8 µg/mL	62.7 µg/mL		67.5 µg/mL	26 µg/mL
C(=NC12CC3CC(CC(C3)C1)C2)C1CCCCC1	> 100	> 100	> 100	> 100	> 100	> 100	> 100	> 100		> 100										
CO/C(N)=C(\C#N)N=Cc1ccsc1		> 100	> 100	> 100	> 100	> 100	> 100	> 100	> 100	> 100										
N/C(CCSCCSCC/C(N)=N\O)=N\O	> 100	> 100		> 100	> 100	> 100	> 100	> 100	> 100	> 100										
Fc1ccc2c(c1)SC1=Nc3sc4cc(F)ccc4[n+]3CN12	8.45	28.2	74		> 100	44.3	36	42.7	55.4	46.3										
CCN(CC)c1ccc(Cl)c2c1C(O)(C(C)C)C2(C)C (configuration not stated)	31.2	28.8	33	28.4	44.2		25.2	30.2		30.5										
O=c1[nH]c2ccccc2c2oc3ccccc3c12		> 100	> 100	> 100	> 100	> 100	> 100	> 100	> 100	> 100										
CC(=O)Nc1ccc2c(c1)C(=O)c1ccccc1-2	> 100		> 100	> 100	> 100		> 100	> 100		> 100										
Cc1nn(C(=O)Cc2ccccc2)c2c1C(c1ccc(/C=C/c3ccccc3)cc1)SC(N)=N2 (configuration not stated)	> 100	> 100	> 100	> 100	> 100	> 100		> 100	> 100											
O=[N+]([O-])c1ccc(N/N=C\c2cc(Br)ccc2O)nc1	> 100	10.9	3.11	17.5	4.18	4.76	2.3		> 100	3.24	0.753 µM	1.32	1.05 µM	1.23 µM	0.452 µM	0.511 µM	0.525 µM		0.736 µM	2.07 µM
CCOC(OCC)(OCC)C(Br)CC (configuration not stated)	47.5	> 100	> 100	> 100	> 100		> 100	> 100		> 100										
O=C(OC1OC2COC(=O)c3cc(O)c(O)c(O)c3-c3c(cc(O)c(O)c3O)C(=O)OC3C2OC(=O)[C@@]24CC(=O)[C@@](O)(OC25C(=O)O[C@H]2[C@@H](O)CO[C@@]25O)C2(O)Oc5c(O)c(O)cc(c5C24)C(=O)OC13)c1cc(O)c(O)c(O)c1 (some centres not stated)	> 100	> 100	> 100	68.6	> 100	18.5	> 100		> 100	> 100										
